From EP1132396A1, “PHYSIOLOGICALLY ACTIVE PEPTIDES” (KYOWA HAKKO KOGYO CO., LTD., priority 1998, dated 2000)
Converted amounts (≈) assume the structure as drawn. Residues, ends and D or L forms follow the SMILES beside them.

Key:
[1] = Water solubility of the peptides; type: physicochemical
Description: The physicochemical properties of the peptides of the present invention obtained by the above-described process are shown below.

[2] = test system: human peripheral blood leukocytes; assay: Measurement of phagocytosis activity (fluorescence-labeled latex beads, flow cytometry); type: cell-based; settings: rate based on the control (only PBS)
Protocol: To human peripheral blood was added physiological saline containing phosphate buffer (PBS), and the resulting mixture was centrifuged at 1000 rpm for 5 minutes to wash blood cells. Then, the blood cells were suspended in PBS to prepare a suspension having a density of 4 x 10^6 cells/ml. To 100 µl of the suspension was added 10 µl of a solution of a peptide in PBS, followed by incubation at 37°C for 10 minutes. Then, 10 µl of a suspension of 4 x 10^8/ml fluorescence-labeled latex beads opsonized with human peripheral blood was added thereto, and the resulting mixture was incubated for 5 minutes. To the mixture was added PBS containing ethylenediaminetetraacetic acid (EDTA) to stop the reaction. The resulting mixture was centrifuged to separate blood cells, and an ammonium chloride hemolyzing agent was added thereto for hemolysis to obtain leukocytes. After the obtained leukocytes were suspended in PBS containing EDTA, the resulting suspension was subjected to flow cytometry, and the number of cells which phagocytosed latex beads was calculated.
The results are expressed in terms of the rate based on the control (containing only PBS).

[3] = test system: mouse hair follicle cells; assay: Cell growth-promoting effect on cultured mouse hair follicle cells (Neutral Red); type: cell-based, C3H mouse; settings: 5 days culture
Protocol: Mouse hair follicle cells were separated and cultured according to a modification of the method of Tanigaki, et al. [Archives of Dermatological Research, 284, 290-296 (1992)].
The skin on the back of a 4-days-old C3H mouse (Nippon Charles River Co., Ltd.) was cut off and treated with Eagle's MEM (Eagle's Minimum Essential Medium, Nissui Pharmaceutical Co., Ltd.) containing 500 units/ml Dispase (Godo Shusei Co., Ltd.) and 5% fetal calf serum (FCS) at 4°C for 16 hours. Then, the epidermis was stripped from the skin section, and the obtained dermis layer was treated with DMEM (Dulbecco's Modified Eagle Medium) containing 0.25% Collagenase N-2 (Nitta Gelatin Co., Ltd.) and 10% FCS at 37°C for one hour to obtain a dermis suspension. The dermis suspension was filtered through a 212-µm nylon mesh (Nippon Rikagaku Kikai Co., Ltd.) and the filtrate was centrifuged at 1000 rpm for 5 minutes to obtain pellets containing hair follicle tissue. To the pellets was added calcium/magnesium-free PBS (Dulbecco's Phosphate-Buffered Saline) and the pellets were suspended therein using a pipette. The resulting suspension was allowed to stand for 15 minutes to precipitate the hair tissue. The same procedure as above (addition of calcium/magnesium-free PBS, preparation of a suspension using a pipette, and precipitation by standing for 15 minutes) was repeated three times using the obtained hair tissue. Then, the hair tissue was treated with an aqueous solution containing 0.1% ethylenediaminetetraacetic acid (EDTA) and 0.25% trypsin (Gibco) at 37°C for 5 minutes. To the resulting mixture was added DMEM containing 10% FCS to prepare a hair tissue cell suspension having a density of 3 x 10^5 cells/ml.
This hair tissue cell suspension was put into wells of a 24-well collagen-coated plate (Iwaki Glass Co., Ltd.) in an amount of 1 ml/well, followed by culturing in 5% CO2 at 37°C for 24 hours. After the completion of culturing, the medium was replaced by a medium prepared by adding to MCDB153 medium (Kyokuto Pharmaceutical Ind. Co., Ltd.) 5 mg/l bovine insulin (Sigma Chemical Co.), 5 µg/l mouse epidermal growth factor (EGF) (Takara Shuzo Co., Ltd.), 40 mg/l bovine pituitary extract (Kyokuto Pharmaceutical Ind. Co., Ltd.), 10 mg/l human transferrin (Sigma Chemical Co.), 0.4 mg/l hydrocortisone (Sigma Chemical Co.), 0.63 µg/l progesterone (Collaborative Research Co.), 14 mg/l O-phosphoethanolamine (Sigma Chemical Co.), 6.1 mg/l ethanolamine (Sigma Chemical Co.), 50 U/ml penicillin (Wako Pure Chemical Industries, Ltd.), 50 µg/ml streptomycin (Wako Pure Chemical Industries, Ltd.) and a dimethyl sulfoxide (DMSO) solution containing a peptide of the present invention (added in an amount of 1/100 by volume based on the medium), followed by further culturing in 5% CO2 at 37°C for 5 days. During the culturing, the medium was replaced with a fresh one every other day.
As a control, the cells were cultured in the same medium as above except that DMSO containing no peptide was added in an amount of 1/100 by volume based on the culture in place of DMSO containing the peptide.
The degree of cell growth was measured referring to the method using Neutral Red [Journal of Tissue Culture Method, 9, 1, 7-9 (1984)].
After the completion of culturing, the medium was sucked and the resulting cells were cultured in MCDB153 medium containing 50 mg/l Neutral Red (Sigma Chemical Co.) in 5% CO2 at 37°C for 3 hours. […] The degree of cell growth was determined by measuring the absorbance of the extract at 540 nm. […]

[4] = test system: C3H/HeSlc mice; assay: Effect on hair growth of mouse (feed administration); type: in vivo; settings: 20th day, control group subtracted
Protocol: A test of the effect on hair growth of mice was carried out referring to the method of Ogawa, et al. [The Journal of Dermatology, 10, 45-54 (1983)].
Nine-weeks-old male C3H/HeSlc mice whose hair cycle was in the telogen (Japan SLC) were divided into groups each consisting of 4 or 5 mice. Hair on the back of each mouse was carefully shaven using electric hair clippers and an electric shaver. Then, the mice were fed with the feeds prepared in Reference Examples 1-4.
The control group was fed only with a powder feed containing no peptide of the present invention (CE-2, Clea Japan, Inc.)
On the 20th day after the start of the test, the skin on the back of each mouse was cut off and photographed. Using an image processor (Avionics Co., Spicca II), the percentage of the hair-grown area to the total area of the skin on the back was calculated. The rate of the increased hair-grown area (%) was obtained by subtracting the hair-growing rate of the control group from the hair-growing rate of the group fed with a powder feed containing a peptide of the present invention.

| Compound | solubility [1] | Phagocytosis activity ([2]; Concentration 1 µM) | Phagocytosis activity ([2]; Concentration 3 µM) | Phagocytosis activity ([2]; Concentration 10 µM) | further results |
| --- | --- | --- | --- | --- | --- |
| CC[C@H](C)[C@H](NC(=O)[C@@H](N)CCSC)C(=O)N[C@@H](Cc1ccc(O)cc1)C(=O)N[C@@H](CC(C)C)C(=O)O [MIYL] (H-MIYL-OH) | 300 µg/mL (≈ 557 µM) | 1.32 ± 0.15 | 2.21 ± 0.25 | 3.12 ± 0.32 | – |
| CC[C@H](C)[C@H](NC(=O)[C@@H](N)CCSC)C(=O)N[C@@H](Cc1c[nH]c2ccccc12)C(=O)O [MIW] (H-Met-Ile-Trp-OH) | 1000 µg/mL (≈ 2230 µM) | – | – | – | Relative cell growth rate (%) (based on the control) ([3]; Concentration 1 µM): 97%; Relative cell growth rate (%) (based on the control) ([3]; Concentration 3 µM): 143%; Relative cell growth rate (%) (based on the control) ([3]; Concentration 10 µM): 130%; Relative cell growth rate (%) (based on the control) ([3]; Concentration 30 µM): 123%; Relative cell growth rate (%) (based on the control) ([3]; Concentration 100 µM): 119%; Rate of increased hair-grown area (%) ([4]; 0.005% addition to feed): 20.7%; Rate of increased hair-grown area (%) ([4]; 0.05% addition to feed): 23.7% |
| CC[C@H](C)[C@H](NC(=O)[C@@H](NC(=O)[C@@H](N)CCSC)[C@@H](C)CC)C(=O)N[C@@H](CC(C)C)C(=O)O [MIIL] (H-MIIL-OH) | 200 µg/mL (≈ 409 µM) | 1.18 ± 0.07 | 1.62 ± 0.08 | 2.52 ± 0.18 | Phagocytosis activity ([2]; Concentration 30 µM): 2.95 ± 0.20 |
| CC[C@H](C)[C@H](NC(=O)[C@@H](N)CCSC)C(=O)N[C@@H](Cc1ccccc1)C(=O)N[C@@H](CC(C)C)C(=O)O [MIFL] (H-MIFL-OH) | 200 µg/mL (≈ 383 µM) | 2.45 ± 0.17 | 3.06 ± 0.25 | – | Phagocytosis activity ([2]; Concentration 0.1 µM): 1.10 ± 0.09; Phagocytosis activity ([2]; Concentration 0.3 µM): 1.68 ± 0.08 |
| CC[C@H](C)[C@H](NC(=O)[C@@H](N)CCSC)C(=O)N[C@@H](CC(C)C)C(=O)N[C@@H](CC(C)C)C(=O)O [MILL] (H-MILL-OH) | 200 µg/mL (≈ 409 µM) | – | 1.28 ± 0.09 | 2.05 ± 0.08 | Phagocytosis activity ([2]; Concentration 30 µM): 2.97 ± 0.17 |
| CC[C@H](C)[C@H](NC(=O)[C@@H](N)CCSC)C(=O)N[C@@H](Cc1ccccc1)C(=O)O [MIF] (H-Met-Ile-Phe-OH) | 30000 µg/mL (≈ 73300 µM) | – | – | – | Rate of increased hair-grown area (%) ([4]; 0.005% addition to feed): 26.8% |
| CC[C@H](C)[C@H](NC(=O)[C@@H](N)CCSC)C(=O)N[C@@H](Cc1c[nH]c2ccccc12)C(=O)N[C@@H](CC(C)C)C(=O)O [MIWL] (H-MIWL-OH) | 200 µg/mL (≈ 356 µM) | 3.11 ± 0.07 | 3.04 ± 0.50 | – | Phagocytosis activity ([2]; Concentration 0.1 µM): 1.93 ± 0.18; Phagocytosis activity ([2]; Concentration 0.3 µM): 2.74 ± 0.25; Rate of increased hair-grown area (%) ([4]; 0.05% addition to feed): 34.4% |
